According to patent US20020164368A1, “Male contraceptive method and composition” (priority 2000, published 2002):

biological target: T1, Acrosin (purified from boar sperm) (Sus scrofa, UniProt P08001); experiment: Acrosin inhibition in vitro (BAPNA substrate); format: biochemical; conditions: not given
T1 construct: Acrosin (200 μl, purified from boar sperm); from tissue; host or cells: boar sperm
T1 sequence (P08001 17-415): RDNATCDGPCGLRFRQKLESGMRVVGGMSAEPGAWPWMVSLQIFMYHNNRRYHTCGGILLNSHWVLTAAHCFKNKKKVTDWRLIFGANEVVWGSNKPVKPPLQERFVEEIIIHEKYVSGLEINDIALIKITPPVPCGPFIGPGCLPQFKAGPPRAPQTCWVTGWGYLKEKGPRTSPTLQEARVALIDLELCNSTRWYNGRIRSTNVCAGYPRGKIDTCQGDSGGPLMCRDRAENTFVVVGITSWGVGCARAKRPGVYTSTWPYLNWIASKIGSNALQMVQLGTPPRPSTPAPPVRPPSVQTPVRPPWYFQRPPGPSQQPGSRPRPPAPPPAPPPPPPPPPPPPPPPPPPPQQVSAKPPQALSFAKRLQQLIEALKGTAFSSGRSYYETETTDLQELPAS
Procedure: The inhibition of acrosin is assessed in vitro using benzoyl arginine p-nitroanilide (BAPNA) as the enzyme substrate according to the following procedure. Acrosin (200 μl, purified from boar sperm) and a solution of the test compound (200 μl, 10 mg/ml., or 50 μl, 1 mg/ml) in 0.05 M triethanolamine buffer, pH 7.8, are incubated at room temperature for 5 minutes. A control using the buffer solution without the test compound added is also run. A 200 μl-sample of the incubation mixture is then withdrawn and is added to a cuvettecontaining BAPNA (1 ml) and triethanolamine buffer (2 ml). The mixture is stirred and placed in a Gilford recording spectrophotometer. The increase in optical density at 383 mn is measured. One unit of acrosin activity is defined as the amount of acrosin which will cause an increase in optical density at 383 mn of 0.001/minute. One unit of inhibitory activity is defined as the amount of inhibitor which will cause a reduction in the increase in optical density at 383 nm of 0.001/minute.

Question: For `O=S(=O)([O-])Oc1ccc(OS(=O)(=O)[O-])c2ccccc12.[Na+].[Na+]` [Compound 28], which “acrosin inhibition activity (in words)” value is on record?
Answer: The value was “The following compounds have also been found to have acrosin inhibition”.

Question: With `O=S(=O)([O-])Oc1c[nH]c2ccccc12.[Na+]` [Compound 29] as the molecule, how does the “acrosin inhibition activity (in words)” value read?
Answer: Its value is “The following compounds have also been found to have acrosin inhibition”.

same assay, conditions: Conc. of Test Solution 10 Mg/ml

Question: For `CCCCCCCCCCCCOS(=O)(=O)[O-].[Na+]` [n-dodecyl], which “Inhibition (units/mg.)” value is on record?
Answer: Its value is 0 units/mg.

same assay, conditions: Other salts ROSO3M; Conc. of Test Sol. 10 mg/ml

Question: `CCCCCCCCCCCCOS(=O)(=O)O.OCCNCCO` [CH3(CH2)11— diethanol-ammonium] was tested. Which “Inhibition (units/mg)” value did it give?
Answer: Its value is 90,000 units/mg.

Question: For `CCCCCCCCCCCCOS(=O)(=O)O.OCCN(CCO)CCO` [CH3(CH2)11— triethanol-ammonium], which “Inhibition (units/mg)” value is on record?
Answer: The value was 90,000 units/mg.

system: Dutch Belted male rabbits of proven fertility; experiment: Antifertility effects in vivo, oral dosing of male rabbits; design: species or system rabbit; conditions: administered to male rabbits, procedures of Example 4
Procedure: The animals (of proven fertility) are then bred and the genital system of the females is examined to determine the number of embryos.
Dutch Belted male rabbits of proven fertility were randomly selected. They were given 10 mg/kg tetradecyl sodium sulfate suspended in Ca++ free Ringer's solution by gavage. Control animals were given Ca++ free Ringer's solution by gavage. The male rabbits were dosed each day for 3 days and they were bred to females 2 hours after dosing and again 8 hours after dosing. The female rabbits were then given 100 IU human chorionic gonadotrophin (HCG) to stimulate ovulation. Twenty four hours after the last dose of tetradecyl sodium sulfate the male rabbits were bred and the females treated as before. After twelve days the female rabbits were sacrificed and examined for embryos.

Question: “a ethyl a sulfodocosanoate [Compound 31]” was tested. Which “activity as male contraceptives” value did it give?
Answer: The value was “activity as male contraceptives”.

biological target: T2, Testicular bovine hyaluronidase (Bos taurus, UniProt Q2YDK3); experiment: Hyaluronidase inhibition in vitro (chondroitin sulfate agar plate); format: biochemical; conditions: Conc. of Test Solution 1 Mg/ml
T2 construct: Testicular bovine hyaluronidase (Sigma Chemical Company); purchased Sigma Chemical Company; host or cells: bovine testes
T2 sequence (Q2YDK3 36-553): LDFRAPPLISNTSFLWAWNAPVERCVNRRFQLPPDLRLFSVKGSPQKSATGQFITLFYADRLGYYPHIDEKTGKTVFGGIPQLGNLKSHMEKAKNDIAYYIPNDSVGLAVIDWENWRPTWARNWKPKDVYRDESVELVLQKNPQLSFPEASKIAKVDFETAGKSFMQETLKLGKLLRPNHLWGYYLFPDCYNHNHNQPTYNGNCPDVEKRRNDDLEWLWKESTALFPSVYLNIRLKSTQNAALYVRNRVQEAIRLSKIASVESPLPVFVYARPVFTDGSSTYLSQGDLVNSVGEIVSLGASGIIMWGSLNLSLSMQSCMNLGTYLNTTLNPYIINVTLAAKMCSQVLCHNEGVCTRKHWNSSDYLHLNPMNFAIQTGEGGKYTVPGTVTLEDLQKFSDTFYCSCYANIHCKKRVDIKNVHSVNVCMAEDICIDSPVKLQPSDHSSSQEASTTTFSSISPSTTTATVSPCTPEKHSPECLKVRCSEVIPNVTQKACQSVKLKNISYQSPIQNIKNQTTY
Procedure: The inhibition of hyaluronidase was assessed using chondroitin sulfate as the enzyme substrate according to the following procedure. Agar plates containing chondroitin sulfate (0.1 percent) were prepared by the following method: water solutions of I percent agarose, 2 M sodium chloride (0.1 vol.), 1 M sodium acetate (pH 5.0, 0.1 vol), and sodium azide (0.5 mg/ml, 0.1 vol.) qe mixed and the mixture is brought to the boiling temperature. After cooling to about 65° C., a solution of chondroitin sulfate (10 mgtml, 0.1 vol.) is added. After cooling to about 45° C., the resulting mixture (20 ml) is poured onto a petri dish. The plates are allowed to cool to room temperature. A well 2 mm in diameter is then cut in the agar surface. […] A control using only the buffer solution without added test compound is also run. The plates are then incubated overnight (about 16 hours) at 37° C. The zones of hydrolysis of chondroitin sulfate by hyaluronidase are visualized by flooding the plate with 10 percent cetyl trimethyl ammonium bromide. The area of the zone is logarithmically proportional to the concentration of hyaluronidase. Inhibitor activity is determined by comparing the area of hydrolysis from the test compound to the area of hydrolysis from the control. The results are expressed as percent inhibition calculated as follows: [formula]

Question: Which “% Inhibition” value does the source give for `CCCCCCCCCCC(CCCCCCCC)COS(=O)(=O)O` (stereo not shown) [2-octyldodecyl] here?
Answer: Its value is 0%.

Question: With `CC(C)CCCC(C)CCCC(C)CCOS(=O)(=O)[O-].[Na+]` (stereo not shown) [3,7,11-trimethyldodecyl] as the molecule, how does the “% Inhibition” value read?
Answer: Its value is 39%.

Question: With `CC(C)CCCCCCCCCCCOS(=O)(=O)O` [12-methyltridecyl] as the molecule, how does the “% Inhibition” value read?
Answer: The value was 7%.

Question: With `CCCCCCCCCCCCC(C)OS(=O)(=O)O` (stereo not shown) [Compound 2-tetradecyl] as the molecule, how does the “% Inhibition” value read?
Answer: The value was 100%.

Question: With `CCCCCCCCCCC(CCC)OS(=O)(=O)[O-].[Na+]` (stereo not shown) [Compound 4-tetradecyl] as the molecule, how does the “% Inhibition” value read?
Answer: Its value is 0%.

Question: For `CCCCCCCCC(CCCCC)OS(=O)(=O)O` (stereo not shown) [Compound 6-tetradecyl], which “% Inhibition” value is on record?
Answer: The value was 12%.

Question: For `CCCCCCCCCC(CCCCCC)OS(=O)(=O)O` (stereo not shown) [Compound 7-hexadecyl], which “% Inhibition” value is on record?
Answer: Its value is 0%.

Question: `CCCCCCCC(CCCCCC)OS(=O)(=O)O` (stereo not shown) [Compound 7-tetradecyl] was tested. Which “% Inhibition” value did it give?
Answer: Its value is 0%.

Question: With `CCCCCCCCC(CCCCCCC)OS(=O)(=O)O` (stereo not shown) [Compound 8-hexadecyl] as the molecule, how does the “% Inhibition” value read?
Answer: Its value is 0%.

Question: Which “% Inhibition” value does the source give for `CCCCCCCCCC(CCCCCCCC)OS(=O)(=O)O` (stereo not shown) [Compound 9-octadecyl] here?
Answer: Its value is 7%.

Question: `CCCCC/C=C\C/C=C\CCCCCCCCOS(=O)(=O)O` [linoleyl] was tested. Which “% Inhibition” value did it give?
Answer: Its value is 0%.

Question: How did the “% Inhibition” value turn out when `CCCC/C=C/CCCCCCCCOS(=O)(=O)[O-].[Na+]` [myristeladyl] was run?
Answer: The value was 13%.

Question: How did the “% Inhibition” value turn out when `CCCC/C=C\CCCCCCCCOS(=O)(=O)O` [myristoleyl] was run?
Answer: Its value is 13%.

Question: Which “% Inhibition” value does the source give for `CCCCCCCCCCCCCCCCCCCCCCOS(=O)(=O)O` [n-docosyl] here?
Answer: Its value is 0%.

Question: For `CCCCCCCCCCCCCCCCCCCCCCCCCCCOS(=O)(=O)O` [n-heptacosyl], which “% Inhibition” value is on record?
Answer: The value was 0%.

Question: For `CCCCCCCCCCCCCCCCCCCCCCCCOS(=O)(=O)O` [n-tetracosyl], which “% Inhibition” value is on record?
Answer: Its value is 0%.

Question: For `CCCCCCCC/C=C\CCCCCCCCOS(=O)(=O)O` [oleyl], which “% Inhibition” value is on record?
Answer: Its value is 0%.

Question: `CC(C)CCCC(C)CCOS(=O)(=O)O` (stereo not shown) [tetrahydrogeranyl] was tested. Which “% Inhibition” value did it give?
Answer: Its value is 0%.

same assay, conditions: Conc. of Test Solution 10 Mg/ml

Question: For `CCCCCCCCCCCCOS(=O)(=O)[O-].[Na+]` [n-dodecyl], which “% Inhibition” value is on record?
Answer: The value was 71%.

Question: `CCCCCCCCCCCCCCCCCCCCOS(=O)(=O)O` [n-eicosyl] was tested. Which “% Inhibition” value did it give?
Answer: The value was 0%.

Question: With `CCCCCCCCCCCOS(=O)(=O)O` [n-hendecyl] as the molecule, how does the “% Inhibition” value read?
Answer: The value was 100%.

Question: Which “% Inhibition” value does the source give for `CCCCCCCCCCCCCCCCCOS(=O)(=O)O` [n-heptadecyl] here?
Answer: The value was 23%.

Question: `CCCCCCCCCCCCCCCCOS(=O)(=O)O` [n-hexadecyl] was tested. Which “% Inhibition” value did it give?
Answer: The value was 75%.

Question: `CCCCCCCCCCCCCCCCCCOS(=O)(=O)O` [n-octadecyl] was tested. Which “% Inhibition” value did it give?
Answer: The value was 30%.

Question: Which “% Inhibition” value does the source give for `CCCCCCCCCCCCCCCOS(=O)(=O)O` [n-pentadecyl] here?
Answer: The value was 60%.

Question: How did the “% Inhibition” value turn out when `CCCCCCCCCCCCCOS(=O)(=O)O` [n-tridecyl] was run?
Answer: The value was 80%.

same assay, conditions: Other salts ROSO3M; Conc. of Test Sol. 10 (mg/ul)

Question: For `CCCCCCCCCCCCOS(=O)(=O)O.OCCNCCO` [CH3(CH2)11— diethanol-ammonium], which “% Inhibition” value is on record?
Answer: The value was 100%.

Question: Which “% Inhibition” value does the source give for `CCCCCCCCCCCCOS(=O)(=O)O.OCCN(CCO)CCO` [CH3(CH2)11— triethanol-ammonium] here?
Answer: The value was 100%.
